This note sets out measurements from patent US10550105B2 (Ribon Therapeutics Inc., priority 2018, dated 2020).

pIC50: −log10 of the molar value.

The target of the assay is PARP7 (Homo sapiens (Human), UniProt Q7Z3E1). As to the kind of experiment: Enzymatic assay for inhibition of PARP7: TR-FRET displacement of biotinylated Probe A from the TIPARP active site. It is filed as binding. As to conditions: Table A-1. A digest of the protocol: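 TR-FRET, ex 320 nm / em 615 and 665 nm. Signal ratio reflects complex formation.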
Sequence of PARP7 (Q7Z3E1 whole entry): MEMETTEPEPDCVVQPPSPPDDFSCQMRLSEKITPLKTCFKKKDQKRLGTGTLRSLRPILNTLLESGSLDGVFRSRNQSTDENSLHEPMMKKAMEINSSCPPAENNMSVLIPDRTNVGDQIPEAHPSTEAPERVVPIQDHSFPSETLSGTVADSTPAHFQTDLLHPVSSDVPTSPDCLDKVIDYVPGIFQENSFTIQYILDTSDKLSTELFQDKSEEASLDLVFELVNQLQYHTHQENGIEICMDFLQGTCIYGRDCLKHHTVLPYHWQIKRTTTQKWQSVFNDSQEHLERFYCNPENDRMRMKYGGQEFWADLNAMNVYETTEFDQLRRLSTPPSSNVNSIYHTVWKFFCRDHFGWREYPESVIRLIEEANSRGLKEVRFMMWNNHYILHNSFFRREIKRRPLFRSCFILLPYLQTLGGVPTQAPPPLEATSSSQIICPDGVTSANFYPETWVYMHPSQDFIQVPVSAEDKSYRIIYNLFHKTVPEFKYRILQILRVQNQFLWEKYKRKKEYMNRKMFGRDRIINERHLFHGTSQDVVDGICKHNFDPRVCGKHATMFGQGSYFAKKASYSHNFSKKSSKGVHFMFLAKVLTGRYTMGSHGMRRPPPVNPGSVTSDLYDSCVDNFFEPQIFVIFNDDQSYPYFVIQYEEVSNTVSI
On the technique in general: Time-resolved FRET reads energy transfer from a long-lived donor to a nearby acceptor.
In the case of `C[C@@H](COCCC(=O)N1CCN(c2ncc(C(F)(F)F)cn2)CC1)Sc1cn[nH]c(=O)c1Cl` [Example 701, (S)-4-Chloro-5-((1-(3-oxo-3-(4-(5-(trifluoromethyl)pyrimidin-2-yl)piperazin-1-yl)propoxy)propan-2-yl)thio)pyridazin-3(2H)-one], the pIC50 was over 7.00.
Under `C[C@@H](CSCCC(=O)N1CCN(c2ncc(C(F)(F)F)cn2)CC1)Nc1cn[nH]c(=O)c1C(F)(F)F` [Example 702, (S)-5-((1-((3-Oxo-3-(4-(5-(trifluoromethyl)pyrimidin-2-yl)piperazin-1-yl)propyl)thio)propan-2-yl)amino)-4-(trifluoromethyl)pyridazin-3(2H)-one] stands over 7.00.
Under `C[C@H](CSCCC(=O)N1CCN(c2ncc(C(F)(F)F)cn2)CC1)Nc1cn[nH]c(=O)c1C(F)(F)F` [Example 703, (R)-5-((1-((3-Oxo-3-(4-(5-(trifluoromethyl)pyrimidin-2-yl)piperazin-1-yl)propyl)thio)propan-2-yl)amino)-4-(trifluoromethyl)pyridazin-3(2H)-one] stands 6.00 to 7.00; under `O=C(CCOC[C@@H](CCO)Oc1cn[nH]c(=O)c1C(F)(F)F)N1CCN(c2ncc(Cl)cn2)CC1` [Example 704, (R)-5-((1-(3-(4-(5-Chloropyrimidin-2-yl)piperazin-1-yl)-3-oxopropoxy)-4-hydroxybutan-2-yl)oxy)-4-(trifluoromethyl)pyridazin-3(2H)-one], over 7.00; under `O=C(CCOC[C@H](CCO)Oc1cn[nH]c(=O)c1C(F)(F)F)N1CCN(c2ncc(Cl)cn2)CC1` [Example 705, (S)-5-((1-(3-(4-(5-Chloropyrimidin-2-yl)piperazin-1-yl)-3-oxopropoxy)-4-hydroxybutan-2-yl)oxy)-4-(trifluoromethyl)pyridazin-3(2H)-one], 6.00 to 7.00.
Then `C[C@@H](COCCC(=O)N1CCN(c2ncc(C(F)F)cn2)CC1)Nc1cn[nH]c(=O)c1C(F)(F)F` [Example 706, (S)-5-((1-(3-(4-(5-(Difluoromethyl)pyrimidin-2-yl)piperazin-1-yl)-3-oxopropoxy)propan-2-yl)amino)-4-(trifluoromethyl)pyridazin-3(2H)-one], with over 7.00; and `C[C@@H](COCCC(=O)N1CCN(c2ncc(C(C)(F)F)cn2)CC1)Nc1cn[nH]c(=O)c1C(F)(F)F` [Example 707, (S)-5-((1-(3-(4-(5-(1,1-Difluoroethyl)pyrimidin-2-yl)piperazin-1-yl)-3-oxopropoxy)propan-2-yl)amino)-4-(trifluoromethyl)pyridazin-3(2H)-one], with over 7.00; and `C[C@@H](COCCC(=O)N1CCN(c2ncc(C(F)(F)F)s2)CC1)Oc1cn[nH]c(=O)c1C(F)(F)F` [Example 708, (S)-5-((1-(3-Oxo-3-(4-(5-(trifluoromethyl)thiazol-2-yl)piperazin-1-yl)propoxy)propan-2-yl)oxy)-4-(trifluoromethyl)pyridazin-3(2H)-one], with over 7.00.
The compound `C[C@@H](COCCC(=O)N1CCN(c2cnc(C(F)(F)F)s2)CC1)Nc1cn[nH]c(=O)c1C(F)(F)F` [Example 709, (S)-5-((1-(3-Oxo-3-(4-(2-(trifluoromethyl)thiazol-5-yl)piperazin-1-yl)propoxy)propan-2-yl)amino)-4-(trifluoromethyl)pyridazin-3(2H)-one] had a negative-log IC50 (pIC50) of over 7.00.
Under `C[C@@H](COCCC(=O)N1CCC(Nc2ncc(C(F)(F)F)cn2)C1)Nc1cn[nH]c(=O)c1C(F)(F)F` (stereo partly drawn) [Example 710, 5-(((2S)-1-(3-Oxo-3-(3-((5-(trifluoromethyl)pyrimidin-2-yl)amino)pyrrolidin-1-yl)propoxy)propan-2-yl)amino)-4-(trifluoromethyl)pyridazin-3(2H)-one] stands 6.00 to 7.00.
Under `C[C@@H](COCCC(=O)N1CCN(c2ncc(C#N)s2)CC1)Oc1cn[nH]c(=O)c1C(F)(F)F` [Example 711, (S)-2-(4-(3-(2-((6-Oxo-5-(trifluoromethyl)-1,6-dihydropyridazin-4-yl)oxy)propoxy)propanoyl)piperazin-1-yl)thiazole-5-carbonitrile] stands over 7.00; under `COC[C@@H](COCCC(=O)N1CCN(c2ncc(C(F)(F)F)s2)CC1)Nc1cn[nH]c(=O)c1C(F)(F)F` [Example 712, (S)-5-((1-Methoxy-3-(3-oxo-3-(4-(5-(trifluoromethyl)thiazol-2-yl)piperazin-1-yl)propoxy)propan-2-yl)amino)-4-(trifluoromethyl)pyridazin-3(2H)-one], over 7.00; under `COC[C@@H](COCCC(=O)N1CCN(c2ncc(C#N)s2)CC1)Nc1cn[nH]c(=O)c1C(F)(F)F` [Example 713, (S)-2-(4-(3-(3-Methoxy-2-((6-oxo-5-(trifluoromethyl)-1,6-dihydropyridazin-4-yl)amino)propoxy)propanoyl)piperazin-1-yl)thiazole-5-carbonitrile], over 7.00.
As to `[2H]C1([2H])N(C(=O)CCOC[C@H](C)Oc2cn[nH]c(=O)c2C(F)(F)F)C([2H])([2H])C([2H])([2H])N(c2ccc(C#N)cn2)C1([2H])[2H]` [Example 714, (S)-6-(4-(3-(2-((6-Oxo-5-(trifluoromethyl)-1,6-dihydropyridazin-4-yl)oxy)propoxy)propanoyl)piperazin-1-yl-2,2,3,3,5,5,6,6-d8)nicotinonitrile], the pIC50 was over 7.00.
Under `[2H]C1([2H])N(C(=O)CCOC[C@H](C)Oc2cn[nH]c(=O)c2C(F)(F)F)C([2H])([2H])C([2H])([2H])N(c2ncc(Cl)cn2)C1([2H])[2H]` [Example 715, (S)-5-((1-(3-(4-(5-Chloropyrimidin-2-yl)piperazin-1-yl-2,2,3,3,5,5,6,6-d8)-3-oxopropoxy)propan-2-yl)oxy)-4-(trifluoromethyl)pyridazin-3(2H)-one] stands over 7.00; under `C[C@@H](COCCC(=O)N1CCC(Oc2ncc(C(F)(F)F)cn2)C1)Nc1cn[nH]c(=O)c1C(F)(F)F` (stereo partly drawn) [Example 716, 5-(((2S)-1-(3-Oxo-3-(3-((5-(trifluoromethyl)pyrimidin-2-yl)oxy)pyrrolidin-1-yl)propoxy)propan-2-yl)amino)-4-(trifluoromethyl)pyridazin-3(2H)-one], over 7.00.
Under `C[C@@H](COCCC(=O)N1CCC(Nc2ncc(C#N)s2)C1)Nc1cn[nH]c(=O)c1C(F)(F)F` (stereo partly drawn) [Example 717, 2-((1-(3-((S)-2-((6-Oxo-5-(trifluoromethyl)-1,6-dihydropyridazin-4-yl)amino)propoxy)propanoyl)pyrrolidin-3-yl)amino)thiazole-5-carbonitrile] stands over 7.00; under `C[C@@H](COCCC(=O)N1CCC(Oc2ncc(C#N)s2)C1)Nc1cn[nH]c(=O)c1C(F)(F)F` (stereo partly drawn) [Example 718, 2-((1-(3-((S)-2-((6-Oxo-5-(trifluoromethyl)-1,6-dihydropyridazin-4-yl)amino)propoxy)propanoyl)pyrrolidin-3-yl)oxy)thiazole-5-carbonitrile], over 7.00.
Then `C[C@@H](COCCC(=O)N1CCC(Oc2ncc(C(F)(F)F)s2)C1)Nc1cn[nH]c(=O)c1C(F)(F)F` (stereo partly drawn) [Example 720, 5-(((2S)-1-(3-Oxo-3-(3-((5-(trifluoromethyl)thiazol-2-yl)oxy)pyrrolidin-1-yl)propoxy)propan-2-yl)amino)-4-(trifluoromethyl)pyridazin-3(2H)-one], with over 7.00; and `C[C@@H](COCCC(=O)N1CCN(c2ncc(Cl)s2)CC1)Nc1cn[nH]c(=O)c1C(F)(F)F` [Example 721, (S)-5-((1-(3-(4-(5-Chlorothiazol-2-yl)piperazin-1-yl)-3-oxopropoxy)propan-2-yl)amino)-4-(trifluoromethyl)pyridazin-3(2H)-one], with over 7.00.
As to `C[C@@H](COCCC(=O)N1CCN(c2nnc(C(F)(F)F)s2)CC1)Nc1cn[nH]c(=O)c1C(F)(F)F` [Example 722, (S)-5-((1-(3-Oxo-3-(4-(5-(trifluoromethyl)-1,3,4-thiadiazol-2-yl)piperazin-1-yl)propoxy)propan-2-yl)amino)-4-(trifluoromethyl)pyridazin-3(2H)-one], the pIC50 is over 7.00.
Then `C[C@@H](COCCC(=O)N1CCN(c2ncc(Cl)s2)CC1)Oc1cn[nH]c(=O)c1C(F)(F)F` [Example 723, (S)-5-((1-(3-(4-(5-Chlorothiazol-2-yl)piperazin-1-yl)-3-oxopropoxy)propan-2-yl)oxy)-4-(trifluoromethyl)pyridazin-3(2H)-one], with over 7.00; and `O=c1[nH]ncc(OCCOCCS(=O)(=O)N2CCN(c3ncc(C(F)(F)F)cn3)CC2)c1C(F)(F)F` [Example 724, 4-(Trifluoromethyl)-5-(2-(2-((4-(5-(trifluoromethyl)pyrimidin-2-yl)piperazin-1-yl)sulfonyl)ethoxy)ethoxy)pyridazin-3(2H)-one], with over 7.00; and `C[C@@H](COCCS(=O)(=O)N1CCN(c2ncc(C(C)(C)C)cn2)CC1)Nc1cn[nH]c(=O)c1C(F)(F)F` [Example 725, (S)-5-((1-(2-((4-(5-(Tert-butyl)pyrimidin-2-yl)piperazin-1-yl)sulfonyl)ethoxy)propan-2-yl)amino)-4-(trifluoromethyl)pyridazin-3(2H)-one], with over 7.00.
Then `C[C@@H](COCCS(=O)(=O)N1CCN(c2ncc(C(F)(F)F)s2)CC1)Nc1cn[nH]c(=O)c1C(F)(F)F` [Example 726, (S)-4-(Trifluoromethyl)-5-((1-(2-((4-(5-(trifluoromethyl)thiazol-2-yl)piperazin-1-yl)sulfonyl)ethoxy)propan-2-yl)amino)pyridazin-3(2H)-one], with over 7.00; and `CC[C@@H](COCCC(=O)N1CCN(c2ncc(Cl)cn2)CC1)Oc1cn[nH]c(=O)c1Br` [Example 727, (S)-4-Bromo-5-((1-(3-(4-(5-chloropyrimidin-2-yl)piperazin-1-yl)-3-oxopropoxy)butan-2-yl)oxy)pyridazin-3(2H)-one], with over 7.00.
On to `C[C@@H](COCCS(=O)(=O)N1CCN(c2ncc(C(F)(F)F)cn2)CC1)Oc1cn[nH]c(=O)c1C(F)(F)F` [Example 728, (S)-4-(Trifluoromethyl)-5-((1-(2-((4-(5-(trifluoromethyl)pyrimidin-2-yl)piperazin-1-yl)sulfonyl)ethoxy)propan-2-yl)oxy)pyridazin-3(2H)-one], for which the pIC50 is over 7.00.

In general, pIC50 refers to −log10 of the IC50, conventionally taken in molar units. A high value points to a low IC50.
